Here are results for 4 compounds from the Kinase Knowledgebase extract (Sharma et al. 2016).

Each structure is given as a SMILES string.

The Ki is a dissociation constant, usually derived from enzyme kinetics or from competition with a known ligand. Read a low Ki as a stronger hold on the target.

Assay in all cases: Enzyme Assay
In assay [1] the target is PIK3CG (human) (UniProt P48736).
Assay [2] addresses PIK3CD (Human) (UniProt O00329).
For assay [3], the target named is PIK3CA (human) (UniProt P42336).
The target in assay [4] is PIK3CB (Human) (UniProt P42338).
PIK3CB (Human), sequence (P42338 whole entry, looked up): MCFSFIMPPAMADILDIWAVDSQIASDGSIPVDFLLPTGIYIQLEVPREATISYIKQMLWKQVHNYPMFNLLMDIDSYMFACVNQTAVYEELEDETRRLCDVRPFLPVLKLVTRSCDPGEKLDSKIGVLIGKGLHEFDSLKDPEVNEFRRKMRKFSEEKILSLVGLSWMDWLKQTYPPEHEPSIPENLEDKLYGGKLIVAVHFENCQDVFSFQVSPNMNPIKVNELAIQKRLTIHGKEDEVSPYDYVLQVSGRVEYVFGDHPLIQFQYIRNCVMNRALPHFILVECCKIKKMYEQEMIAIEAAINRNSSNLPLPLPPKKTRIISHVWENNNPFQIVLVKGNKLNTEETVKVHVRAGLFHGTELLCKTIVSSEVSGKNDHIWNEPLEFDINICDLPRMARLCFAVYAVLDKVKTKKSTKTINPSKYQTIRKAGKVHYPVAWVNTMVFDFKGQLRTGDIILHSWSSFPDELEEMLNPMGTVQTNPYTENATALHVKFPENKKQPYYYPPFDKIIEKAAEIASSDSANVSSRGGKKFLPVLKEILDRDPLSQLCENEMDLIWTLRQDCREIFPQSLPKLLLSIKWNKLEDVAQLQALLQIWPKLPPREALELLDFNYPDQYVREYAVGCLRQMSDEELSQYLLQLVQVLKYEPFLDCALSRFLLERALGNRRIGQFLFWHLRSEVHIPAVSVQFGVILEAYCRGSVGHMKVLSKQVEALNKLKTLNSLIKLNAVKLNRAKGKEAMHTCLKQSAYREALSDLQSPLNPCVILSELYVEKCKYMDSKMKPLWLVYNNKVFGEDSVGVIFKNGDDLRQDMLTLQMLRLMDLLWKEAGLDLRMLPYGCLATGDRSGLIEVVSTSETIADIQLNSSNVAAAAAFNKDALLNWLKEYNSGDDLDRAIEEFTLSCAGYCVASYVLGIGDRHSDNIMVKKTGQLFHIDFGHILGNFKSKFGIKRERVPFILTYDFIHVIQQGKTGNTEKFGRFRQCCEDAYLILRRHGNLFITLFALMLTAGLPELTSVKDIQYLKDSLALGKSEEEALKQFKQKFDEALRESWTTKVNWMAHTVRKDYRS

PIK3CD (Human), sequence (O00329 whole entry, looked up): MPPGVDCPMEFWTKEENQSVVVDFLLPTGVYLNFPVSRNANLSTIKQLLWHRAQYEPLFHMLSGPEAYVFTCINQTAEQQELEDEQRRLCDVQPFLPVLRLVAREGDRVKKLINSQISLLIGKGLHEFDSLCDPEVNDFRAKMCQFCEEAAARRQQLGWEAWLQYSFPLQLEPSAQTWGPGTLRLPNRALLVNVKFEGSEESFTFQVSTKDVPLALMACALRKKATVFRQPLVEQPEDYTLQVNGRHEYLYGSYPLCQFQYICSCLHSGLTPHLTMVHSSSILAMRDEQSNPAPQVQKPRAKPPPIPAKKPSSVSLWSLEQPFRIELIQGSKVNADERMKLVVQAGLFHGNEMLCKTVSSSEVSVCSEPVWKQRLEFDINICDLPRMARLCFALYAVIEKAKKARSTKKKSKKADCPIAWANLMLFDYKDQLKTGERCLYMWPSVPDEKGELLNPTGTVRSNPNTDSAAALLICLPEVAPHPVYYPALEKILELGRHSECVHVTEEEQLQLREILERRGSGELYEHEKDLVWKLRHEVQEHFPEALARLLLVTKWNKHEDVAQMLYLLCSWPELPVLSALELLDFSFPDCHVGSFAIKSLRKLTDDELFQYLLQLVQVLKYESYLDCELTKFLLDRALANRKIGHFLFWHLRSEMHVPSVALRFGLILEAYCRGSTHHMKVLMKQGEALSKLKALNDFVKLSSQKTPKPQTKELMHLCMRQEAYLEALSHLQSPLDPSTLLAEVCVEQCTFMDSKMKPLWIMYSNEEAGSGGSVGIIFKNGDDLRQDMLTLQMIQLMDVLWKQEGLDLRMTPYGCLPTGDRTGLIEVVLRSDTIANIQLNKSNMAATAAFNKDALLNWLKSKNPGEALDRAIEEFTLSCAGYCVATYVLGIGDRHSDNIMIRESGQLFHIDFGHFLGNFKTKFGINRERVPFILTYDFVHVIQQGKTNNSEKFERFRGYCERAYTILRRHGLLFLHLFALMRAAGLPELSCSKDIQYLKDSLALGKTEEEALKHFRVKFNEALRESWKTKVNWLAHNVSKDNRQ
PIK3CG (human), sequence (P48736 whole entry, looked up): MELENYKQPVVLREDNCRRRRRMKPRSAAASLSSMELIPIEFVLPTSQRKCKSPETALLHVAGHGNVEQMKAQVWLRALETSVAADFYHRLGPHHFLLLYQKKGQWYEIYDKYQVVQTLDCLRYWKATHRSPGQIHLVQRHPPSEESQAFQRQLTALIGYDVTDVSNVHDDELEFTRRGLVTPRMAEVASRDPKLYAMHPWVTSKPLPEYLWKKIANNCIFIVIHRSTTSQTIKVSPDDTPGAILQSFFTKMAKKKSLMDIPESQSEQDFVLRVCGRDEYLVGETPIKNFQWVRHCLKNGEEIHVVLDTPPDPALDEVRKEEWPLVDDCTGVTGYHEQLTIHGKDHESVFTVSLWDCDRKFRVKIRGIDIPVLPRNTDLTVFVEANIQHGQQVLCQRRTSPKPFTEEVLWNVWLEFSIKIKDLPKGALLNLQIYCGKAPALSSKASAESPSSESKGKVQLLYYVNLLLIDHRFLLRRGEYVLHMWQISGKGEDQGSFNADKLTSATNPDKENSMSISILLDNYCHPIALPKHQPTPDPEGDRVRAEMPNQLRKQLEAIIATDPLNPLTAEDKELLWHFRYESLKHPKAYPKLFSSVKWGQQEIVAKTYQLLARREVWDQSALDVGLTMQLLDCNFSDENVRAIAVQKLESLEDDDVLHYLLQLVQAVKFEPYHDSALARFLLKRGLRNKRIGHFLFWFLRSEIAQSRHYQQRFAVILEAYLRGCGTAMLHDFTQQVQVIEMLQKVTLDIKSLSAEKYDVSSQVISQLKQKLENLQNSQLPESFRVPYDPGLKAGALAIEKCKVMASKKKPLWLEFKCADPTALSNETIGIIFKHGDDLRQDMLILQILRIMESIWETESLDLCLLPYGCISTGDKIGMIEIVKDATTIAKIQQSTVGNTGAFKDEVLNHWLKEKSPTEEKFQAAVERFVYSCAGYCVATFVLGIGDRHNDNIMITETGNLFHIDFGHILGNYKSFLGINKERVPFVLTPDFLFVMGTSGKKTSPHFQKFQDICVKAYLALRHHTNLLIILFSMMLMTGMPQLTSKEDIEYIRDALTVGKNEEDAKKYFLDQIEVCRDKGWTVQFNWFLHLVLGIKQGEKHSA
PIK3CA (human), sequence (P42336 whole entry, looked up): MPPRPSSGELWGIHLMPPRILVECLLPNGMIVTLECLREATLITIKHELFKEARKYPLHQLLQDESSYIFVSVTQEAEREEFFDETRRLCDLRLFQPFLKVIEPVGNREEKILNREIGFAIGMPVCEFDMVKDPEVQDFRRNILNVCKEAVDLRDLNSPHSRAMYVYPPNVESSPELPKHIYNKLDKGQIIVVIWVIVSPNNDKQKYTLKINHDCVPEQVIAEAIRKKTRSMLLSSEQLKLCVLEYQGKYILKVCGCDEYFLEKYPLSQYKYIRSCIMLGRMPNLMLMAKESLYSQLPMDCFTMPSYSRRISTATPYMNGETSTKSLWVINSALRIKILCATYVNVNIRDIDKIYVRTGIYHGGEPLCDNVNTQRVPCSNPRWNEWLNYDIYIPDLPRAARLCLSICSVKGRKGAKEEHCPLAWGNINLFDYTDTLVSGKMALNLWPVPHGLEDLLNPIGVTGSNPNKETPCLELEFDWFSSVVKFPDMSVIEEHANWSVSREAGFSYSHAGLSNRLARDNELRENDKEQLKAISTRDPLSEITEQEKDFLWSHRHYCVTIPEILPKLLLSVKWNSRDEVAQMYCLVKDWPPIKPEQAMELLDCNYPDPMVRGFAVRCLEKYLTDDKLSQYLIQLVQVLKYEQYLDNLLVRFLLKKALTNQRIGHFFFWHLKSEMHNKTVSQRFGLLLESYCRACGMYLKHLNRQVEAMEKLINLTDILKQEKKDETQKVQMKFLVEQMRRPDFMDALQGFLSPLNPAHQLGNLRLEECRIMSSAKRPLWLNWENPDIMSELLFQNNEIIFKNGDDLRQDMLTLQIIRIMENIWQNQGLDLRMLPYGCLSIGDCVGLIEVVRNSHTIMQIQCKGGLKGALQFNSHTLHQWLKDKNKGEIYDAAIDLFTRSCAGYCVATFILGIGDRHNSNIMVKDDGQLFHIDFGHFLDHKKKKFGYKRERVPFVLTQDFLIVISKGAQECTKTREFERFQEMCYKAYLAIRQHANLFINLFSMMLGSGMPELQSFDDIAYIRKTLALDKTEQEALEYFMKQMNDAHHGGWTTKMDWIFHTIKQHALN

For the compound `CC1(C)OCCc2c1sc1c(N3CCOCC3)nc(-c3cnc(N)nc3)nc21`, the Ki in assay [1] worked out at 3 nM; in assay [2] it was 3 nM; in assay [3], 1 nM; in assay [4] it was 14 nM.

Regarding `COC(C)(C)c1cc2nc(-c3cnc(N)nc3)nc(N3CCOCC3)c2s1`, the values for the Ki in assay [1], in assay [2] and in assay [4] were 4 nM, 2 nM and 21 nM, respectively.

On to `COC1(c2sc3c(N4CCOCC4)nc(-c4cnc(N)nc4)nc3c2C)COC1`, for which the values for the Ki in assay [1], in assay [2] and in assay [4] were 7 nM, 7 nM and 27 nM, respectively.

For the compound `CC1(C)COC1c1cc2nc(-c3cnc(N)nc3)nc(N3CCOCC3)c2s1` (centres undefined), the Ki turned out to be 5 nM in assay [1], 9 nM in assay [2], 1 nM in assay [3] and 19 nM in assay [4].
